Test results from PubChem BioAssay (NCI).
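Step 1: Grow cells in 96-well plates. Step 2: Expose to compound for 48 hours at 5 concentrations. Step 3: Interpolate endpoints linearly; if unreached, use highest concentration. GI50: concentration for 50% inhibition of growth. TGI is the concentration that stops growth completely.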

Legend:
Test in all cases: NCI anticancer screen, dose series, 48 h
PC-3 prostate = test system: PC-3 prostate
SK-MEL-2 melanoma = test system: SK-MEL-2 melanoma
COLO 205 colon = test system: COLO 205 colon
HCT-15 colon = test system: HCT-15 colon
SF-268 CNS = test system: SF-268 CNS
HCC-2998 colon = test system: HCC-2998 colon
MCF7 breast = test system: MCF7 breast
ACHN renal = test system: ACHN renal
TK-10 renal = test system: TK-10 renal
HL-60(TB) leukemia = test system: HL-60(TB) leukemia
UO-31 renal = test system: UO-31 renal
SF-539 CNS = test system: SF-539 CNS
SK-OV-3 ovarian = test system: SK-OV-3 ovarian
HCT-116 colon = test system: HCT-116 colon
LOX IMVI melanoma = test system: LOX IMVI melanoma
A498 renal = test system: A498 renal
U251 CNS = test system: U251 CNS
IGROV1 ovarian = test system: IGROV1 ovarian
MDA-MB-435 = test system: MDA-MB-435
K-562 leukemia = test system: K-562 leukemia
SW-620 colon = test system: SW-620 colon
RPMI-8226 leukemia = test system: RPMI-8226 leukemia
A549 NSCLC = test system: A549 NSCLC
HOP-62 NSCLC = test system: HOP-62 NSCLC
HOP-92 NSCLC = test system: HOP-92 NSCLC
HT29 colon = test system: HT29 colon
T-47D breast = test system: T-47D breast
NCI-H23 lung = test system: NCI-H23 lung
NCI/ADR-RES ovarian = test system: NCI/ADR-RES ovarian
MDA-MB-231 breast = test system: MDA-MB-231 breast
SNB-19 CNS = test system: SNB-19 CNS
SR leukemia = test system: SR leukemia
EKVX NSCLC = test system: EKVX NSCLC
KM12 colon = test system: KM12 colon
OVCAR-5 ovarian = test system: OVCAR-5 ovarian
SNB-75 CNS = test system: SNB-75 CNS
SN12C renal = test system: SN12C renal
MOLT-4 leukemia = test system: MOLT-4 leukemia
OVCAR-8 ovarian = test system: OVCAR-8 ovarian
UACC-257 melanoma = test system: UACC-257 melanoma
M14 melanoma = test system: M14 melanoma
SK-MEL-28 melanoma = test system: SK-MEL-28 melanoma
HS 578T breast = test system: HS 578T breast
OVCAR-3 ovarian = test system: OVCAR-3 ovarian
SF-295 CNS = test system: SF-295 CNS
SK-MEL-5 melanoma = test system: SK-MEL-5 melanoma
NCI-H226 lung = test system: NCI-H226 lung
RXF 393 renal = test system: RXF 393 renal
CCRF-CEM leukemia = test system: CCRF-CEM leukemia
OVCAR-4 ovarian = test system: OVCAR-4 ovarian
MALME-3M melanoma = test system: MALME-3M melanoma
BT-549 breast = test system: BT-549 breast
NCI-H522 lung = test system: NCI-H522 lung
786-0 renal = test system: 786-0 renal
UACC-62 melanoma = test system: UACC-62 melanoma
NCI-H460 lung = test system: NCI-H460 lung
CAKI-1 renal = test system: CAKI-1 renal
DU-145 prostate = test system: DU-145 prostate

## CC[C@H](C)[C@H]1NC(=O)[C@@H]([C@H](O)C(C)C)NC(=O)[C@@H](C)N(C)C(=O)[C@H](C)N(C)C(=O)[C@H](CC(C)C)NC(=O)[C@H](CC(C)C)N(C)C(=O)[C@H](C)N(C)C1=O
PC-3 prostate
  GI50: 0.364 µM
  TGI: > 14.3 µM
SK-MEL-2 melanoma
  GI50: 0.233 µM
  TGI: 1.27 µM
COLO 205 colon
  GI50: 0.278 µM
  TGI: 4.39 µM
HCT-15 colon
  GI50: 0.538 µM
  TGI: > 14.3 µM
SF-268 CNS
  GI50: 0.276 µM
  TGI: > 14.3 µM
HCC-2998 colon
  GI50: 0.531 µM
  TGI: > 14.3 µM
MCF7 breast
  GI50: 0.192 µM
  TGI: > 14.3 µM
ACHN renal
  GI50: 0.401 µM
  TGI: > 14.3 µM
TK-10 renal
  GI50: 0.276 µM
  TGI: 9.72 µM
HL-60(TB) leukemia
  GI50: 0.995 µM
  TGI: > 14.3 µM
UO-31 renal
  GI50: 0.383 µM
  TGI: > 14.3 µM
SF-539 CNS
  GI50: 0.409 µM
  TGI: 4.19 µM
SK-OV-3 ovarian
  GI50: 0.418 µM
  TGI: 11.1 µM
HCT-116 colon
  GI50: 0.198 µM
  TGI: > 14.3 µM
LOX IMVI melanoma
  GI50: 0.416 µM
  TGI: > 14.3 µM
A498 renal
  GI50: 0.468 µM
  TGI: 5.33 µM
U251 CNS
  GI50: 0.265 µM
  TGI: > 14.3 µM
IGROV1 ovarian
  GI50: 0.276 µM
  TGI: > 14.3 µM
MDA-MB-435
  GI50: 0.376 µM
  TGI: > 14.3 µM
K-562 leukemia
  GI50: 0.547 µM
  TGI: > 14.3 µM
SW-620 colon
  GI50: 0.327 µM
  TGI: > 14.3 µM
RPMI-8226 leukemia
  GI50: 0.446 µM
  TGI: 5.97 µM
A549 NSCLC
  GI50: 0.257 µM
  TGI: > 14.3 µM
HOP-62 NSCLC
  GI50: 0.225 µM
  TGI: 4.26 µM
HOP-92 NSCLC
  GI50: 0.397 µM
  TGI: 12.1 µM
HT29 colon
  GI50: 0.257 µM
  TGI: > 14.3 µM
T-47D breast
  GI50: 0.164 µM
  TGI: 1.15 µM
NCI-H23 lung
  GI50: 0.272 µM
  TGI: > 14.3 µM
NCI/ADR-RES ovarian
  GI50: 2.3 µM
  TGI: > 14.3 µM
MDA-MB-231 breast
  GI50: 0.507 µM
  TGI: > 14.3 µM
SNB-19 CNS
  GI50: 0.266 µM
  TGI: > 14.3 µM
SR leukemia
  GI50: 0.526 µM
  TGI: > 14.3 µM
EKVX NSCLC
  GI50: 0.341 µM
  TGI: > 14.3 µM
KM12 colon
  GI50: 0.326 µM
  TGI: > 14.3 µM
OVCAR-5 ovarian
  GI50: 0.367 µM
  TGI: 13.3 µM
SNB-75 CNS
  GI50: 0.28 µM
  TGI: > 14.3 µM
SN12C renal
  GI50: 0.221 µM
  TGI: > 14.3 µM
MOLT-4 leukemia
  GI50: 0.512 µM
  TGI: > 14.3 µM
OVCAR-8 ovarian
  GI50: 0.391 µM
  TGI: > 14.3 µM
UACC-257 melanoma
  GI50: 0.451 µM
  TGI: > 14.3 µM
M14 melanoma
  GI50: 0.274 µM
  TGI: 3.85 µM
SK-MEL-28 melanoma
  GI50: 0.223 µM
  TGI: 1.76 µM
HS 578T breast
  GI50: 0.261 µM
  TGI: 4.75 µM
OVCAR-3 ovarian
  GI50: 0.39 µM
  TGI: > 14.3 µM
SF-295 CNS
  GI50: 0.319 µM
  TGI: 9.17 µM
SK-MEL-5 melanoma
  GI50: 0.516 µM
  TGI: > 14.3 µM
NCI-H226 lung
  GI50: 0.456 µM
  TGI: 12.4 µM
RXF 393 renal
  GI50: 0.256 µM
  TGI: 1.9 µM
CCRF-CEM leukemia
  GI50: 0.562 µM
  TGI: > 14.3 µM
OVCAR-4 ovarian
  GI50: 0.409 µM
  TGI: > 14.3 µM
MALME-3M melanoma
  GI50: 0.286 µM
  TGI: 10.5 µM
BT-549 breast
  GI50: 0.436 µM
  TGI: 8.46 µM
NCI-H522 lung
  GI50: 0.329 µM
  TGI: 4.7 µM
786-0 renal
  GI50: 0.267 µM
  TGI: > 14.3 µM
UACC-62 melanoma
  GI50: 0.331 µM
  TGI: 4.07 µM
NCI-H460 lung
  GI50: 0.17 µM
  TGI: 2.24 µM

## C#C[C@]1(O)CC[C@H]2[C@@H]3CC=C4c5sc(NCc6ccccc6)nc5CC[C@]4(C)[C@H]3CC[C@@]21C
PC-3 prostate
  GI50: 2.29 µM
  TGI: 6.77 µM
COLO 205 colon
  GI50: 1.92 µM
  TGI: 3.62 µM
HCT-15 colon
  GI50: 1.7 µM
  TGI: 4.15 µM
CAKI-1 renal
  GI50: 2.59 µM
  TGI: 8.04 µM
SF-268 CNS
  GI50: 3.85 µM
  TGI: 16.4 µM
HCC-2998 colon
  GI50: 4.05 µM
  TGI: 14.1 µM
MCF7 breast
  GI50: 3.31 µM
  TGI: 10 µM
ACHN renal
  GI50: 3.92 µM
  TGI: 15.9 µM
TK-10 renal
  GI50: 5.48 µM
  TGI: 18.5 µM
HL-60(TB) leukemia
  GI50: 3.01 µM
  TGI: 9.19 µM
UO-31 renal
  GI50: 2.21 µM
  TGI: 5.41 µM
SF-539 CNS
  GI50: 1.4 µM
  TGI: 3.18 µM
SK-OV-3 ovarian
  GI50: 2.08 µM
  TGI: 4.41 µM
HCT-116 colon
  GI50: 3.37 µM
  TGI: 11.5 µM
LOX IMVI melanoma
  GI50: 2.19 µM
  TGI: 4.93 µM
A498 renal
  GI50: 1.72 µM
  TGI: 4.24 µM
U251 CNS
  GI50: 1.8 µM
  TGI: 5.8 µM
IGROV1 ovarian
  GI50: 5.83 µM
  TGI: 23.3 µM
MDA-MB-435
  GI50: 3.73 µM
  TGI: 18.7 µM
K-562 leukemia
  GI50: 3.23 µM
  TGI: > 100 µM
SW-620 colon
  GI50: 2.22 µM
  TGI: 4.68 µM
RPMI-8226 leukemia
  GI50: 1.65 µM
  TGI: 4.53 µM
A549 NSCLC
  GI50: 3.48 µM
  TGI: 13.1 µM
HOP-62 NSCLC
  GI50: 2.05 µM
  TGI: 4.94 µM
HOP-92 NSCLC
  GI50: 1.56 µM
  TGI: 7.34 µM
HT29 colon
  GI50: 1.68 µM
  TGI: 3.54 µM
T-47D breast
  GI50: 2.76 µM
  TGI: 16.6 µM
NCI-H23 lung
  GI50: 4.4 µM
  TGI: 20.8 µM
NCI/ADR-RES ovarian
  GI50: 3.87 µM
  TGI: 43.9 µM
MDA-MB-231 breast
  GI50: 2.64 µM
  TGI: 7.07 µM
SNB-19 CNS
  GI50: 4.01 µM
  TGI: 18 µM
SR leukemia
  GI50: 3.16 µM
  TGI: 29.6 µM
EKVX NSCLC
  GI50: 4.16 µM
  TGI: 16.3 µM
KM12 colon
  GI50: 3.18 µM
  TGI: 10.8 µM
OVCAR-5 ovarian
  GI50: 4.55 µM
  TGI: 17.6 µM
DU-145 prostate
  GI50: 7.54 µM
  TGI: 40.5 µM
SNB-75 CNS
  GI50: 1.89 µM
SN12C renal
  GI50: 3.52 µM
  TGI: 16.7 µM
MOLT-4 leukemia
  GI50: 2.66 µM
  TGI: 8.69 µM
OVCAR-8 ovarian
  GI50: 3.78 µM
  TGI: 14.4 µM
UACC-257 melanoma
  GI50: 1.82 µM
  TGI: 3.72 µM
M14 melanoma
  GI50: 2.94 µM
  TGI: 10.1 µM
SK-MEL-28 melanoma
  GI50: 2.31 µM
  TGI: 7.2 µM
HS 578T breast
  GI50: 2.02 µM
  TGI: 6.42 µM
SF-295 CNS
  GI50: 1.94 µM
  TGI: 4.08 µM
SK-MEL-5 melanoma
  GI50: 2.91 µM
  TGI: 8.8 µM
NCI-H226 lung
  GI50: 11.3 µM
  TGI: 37.1 µM
RXF 393 renal
  GI50: 1.23 µM
  TGI: 3.17 µM
CCRF-CEM leukemia
  GI50: 2.94 µM
  TGI: 9.49 µM
OVCAR-4 ovarian
  GI50: 8.48 µM
  TGI: 32.9 µM
MALME-3M melanoma
  GI50: 2.14 µM
  TGI: 5.38 µM
BT-549 breast
  GI50: 2.82 µM
  TGI: 7.27 µM
NCI-H522 lung
  GI50: 2.62 µM
  TGI: 8.35 µM
786-0 renal
  GI50: 1.73 µM
  TGI: 3.47 µM
UACC-62 melanoma
  GI50: 1.97 µM
  TGI: 4.49 µM
NCI-H460 lung
  GI50: 4.66 µM
  TGI: 16.6 µM
